{
  "source": "patent US20160030407A1",
  "about": "“Method of Treating Inflammatory Lung Disease” (priority 2010, published 2016)",
  "key": {"[1]": {"test": "Single i.v. dose toxicity, 14-day observation: general observations and mortality (incl. nicotine tolerability study)", "type": "in vivo, Sprague-Dawley rats", "description": "Body weight and food consumption was measured daily for 14 days. On day 15, urine was collected on all surviving animals. The animals were euthanized and bled via cardiac puncture, and blood was collected for analysis. Tissues were collected, weighed, evaluated for gross abnormalities, and stored in 10% neutral-buffered formalin.\nThe animals were weighed prior to dosing and received a single i.v. dose via the lateral tail vein of either test compound or vehicle at a volume of 5 mL/kg.\nAll animals were observed daily."}, "[2]": {"test": "Single i.v. dose toxicity: urinalysis", "type": "in vivo, Sprague-Dawley rats", "conditions": "rat; day 15 after single i.v. dose", "excerpt": "(§1) On day 15, urine was collected on all surviving animals for urinalysis. The animals were euthanized and bled via cardiac puncture. Blood was collected for hematology, clinical chemistry, and coagulation analysis. Tissues were collected, weighed, and stored in 10% neutral-buffered formalin for possible future analysis."}, "[3]": {"test": "Single i.v. dose toxicity: hematology", "type": "in vivo, Sprague-Dawley rats", "excerpt": "as §1"}, "nAChR α3/β4": {"target": "nAChR α3/β4 (Homo sapiens, UniProt P30926+P32297)", "sequence (P32297 32-505)": "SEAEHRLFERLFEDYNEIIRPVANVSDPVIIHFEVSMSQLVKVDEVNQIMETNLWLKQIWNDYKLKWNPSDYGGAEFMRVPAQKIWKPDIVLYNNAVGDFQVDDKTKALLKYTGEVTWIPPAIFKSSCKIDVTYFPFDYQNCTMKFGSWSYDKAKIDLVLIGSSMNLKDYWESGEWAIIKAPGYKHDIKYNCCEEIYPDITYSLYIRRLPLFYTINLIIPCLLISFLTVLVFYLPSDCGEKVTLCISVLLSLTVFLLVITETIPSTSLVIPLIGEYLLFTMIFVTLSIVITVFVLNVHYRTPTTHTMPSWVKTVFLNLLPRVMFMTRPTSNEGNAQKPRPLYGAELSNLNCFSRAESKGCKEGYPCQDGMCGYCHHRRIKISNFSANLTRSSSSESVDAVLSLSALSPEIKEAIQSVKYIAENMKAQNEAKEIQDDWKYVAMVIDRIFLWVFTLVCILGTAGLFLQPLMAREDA", "sequence (P30926 22-498)": "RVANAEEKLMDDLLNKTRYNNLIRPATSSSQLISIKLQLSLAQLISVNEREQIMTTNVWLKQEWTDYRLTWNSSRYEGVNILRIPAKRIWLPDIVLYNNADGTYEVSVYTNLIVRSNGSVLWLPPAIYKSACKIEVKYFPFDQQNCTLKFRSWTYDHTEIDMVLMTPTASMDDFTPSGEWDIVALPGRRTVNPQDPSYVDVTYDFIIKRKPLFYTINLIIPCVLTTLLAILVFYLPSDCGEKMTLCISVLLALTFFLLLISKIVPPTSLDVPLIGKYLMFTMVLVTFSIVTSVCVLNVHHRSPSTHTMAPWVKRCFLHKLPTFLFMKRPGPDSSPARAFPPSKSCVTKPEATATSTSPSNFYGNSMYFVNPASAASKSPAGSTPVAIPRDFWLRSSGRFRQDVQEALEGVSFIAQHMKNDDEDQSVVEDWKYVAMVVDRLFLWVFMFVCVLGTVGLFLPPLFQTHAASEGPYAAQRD", "test": "cell-based", "conditions": "read-out: Normalized % Inhibition", "description": "Briefly, cells were incubated with […] dye for 30 min at 37° C."}, "[4]": {"conditions": "0.75 mg/kg nicotine, female rats, individual animals"}, "[5]": {"conditions": "0.75 mg/kg nicotine, female rats, individual animals, tartrate"}, "[6]": {"conditions": "0.75 mg/kg nicotine, male rats, individual animals"}, "[7]": {"conditions": "0.75 mg/kg nicotine, male rats, individual animals, tartrate"}, "[8]": {"conditions": "0.75 mg/kg, gender F, group mean"}, "[9]": {"conditions": "0.75 mg/kg, gender M, group mean"}},
  "note": "Several values for one entry are separate records, joined by “and”; a condition that tells them apart may be missing. Equal entries are not always repeated.",
  "data": [
    {"smiles": "CN1CCCC1c1cccnc1.O=C(O)C(O)C(O)C(=O)O", "note": "(single isomer, unassigned; (-)) [Nicotine, (−) Nicotine hydrogen tartrate, reference compound]", "values": [
      {"measurement": "time until return to normal, tolerability study", "setting": "[1]; female rats, nicotine 1.25 and 1.0 mg/kg i.v., post dose", "result": "≤ 20", "unit": "min"},
      {"measurement": "observations after dosing, tolerability study", "setting": "[1]; female rats, single i.v. nicotine 1.25 mg/kg (1) and 1.0 mg/kg (3)", "result": "experienced severe tremors upon completion of dosing"},
      {"measurement": "time until return to normal", "setting": "[1]; rat, nicotine 0.75 mg/kg i.v., post dose", "result": "15 to 20", "unit": "min"},
      {"measurement": "observations after dosing", "setting": "[1]; rat, single i.v. 0.75 mg/kg nicotine", "result": "experienced tremors upon compound administration"},
      {"measurement": "mortality", "setting": "[1]; rat, single i.v. 0.75 mg/kg nicotine (5 males, 5 females)", "result": "One male and two females died post dose"},
      {"measurement": "urinalysis parameters vs controls", "setting": "[2]", "result": "no notable differences in any of the urinalysis parameters"},
      {"measurement": "ANISOCYTOSIS", "setting": "[3]; [4]", "result": "SLIGHT"},
      {"measurement": "BASOPHIL", "setting": "[3]; [4]", "result": 0, "unit": "%"},
      {"measurement": "EOSINOPHIL", "setting": "[3]; [4]", "result": 0, "unit": "%"},
      {"measurement": "POLYCHROMASIA", "setting": "[3]; [4]", "result": "SLIGHT"},
      {"measurement": "LYMPHOCYTE", "setting": "[3]; [5]", "result": "83% and 87% and 89%"},
      {"measurement": "MCHC", "setting": "[3]; [5]", "result": 34, "unit": "%"},
      {"measurement": "MONOCYTE", "setting": "[3]; [5]", "result": "2% and 1% and 0%"},
      {"measurement": "NEUTROPHILSEG", "setting": "[3]; [5]", "result": "15% and 12% and 11%"},
      {"measurement": "RE[…]", "setting": "[3]; [5]", "result": "5.8% and 4.9% and 4.5%"},
      {"measurement": "ANISOCYTOSIS", "setting": "[3]; [6]", "result": "SLIGHT"},
      {"measurement": "BASOPHIL", "setting": "[3]; [6]", "result": 0, "unit": "%"},
      {"measurement": "EOSINOPHIL", "setting": "[3]; [6]", "result": 0, "unit": "%"},
      {"measurement": "POLYCHROMASIA", "setting": "[3]; [6]", "result": "SLIGHT"},
      {"measurement": "HCT", "setting": "[3]; [7]", "result": 50, "unit": "%"},
      {"measurement": "LYMPHOCYTE", "setting": "[3]; [7]", "result": "86% and 87% and 80% and 90%"},
      {"measurement": "MONOCYTE", "setting": "[3]; [7]", "result": "2% (3×) and 4%"},
      {"measurement": "NEUTROPHILSEG", "setting": "[3]; [7]", "result": "12% and 11% and 16% and 8%"},
      {"measurement": "RE[…]", "setting": "[3]; [7]", "result": "4.3% and 4.8% and 5.6% and 6.1%"},
      {"measurement": "BASOPHIL", "setting": "[3]; [8]", "result": 0.0, "unit": "%"},
      {"measurement": "EOSINOPHIL", "setting": "[3]; [8]", "result": 0.0, "unit": "%"},
      {"measurement": "HGB", "setting": "[3]; [8]", "result": 16.0, "unit": "g/dL"},
      {"measurement": "MONOCYTE", "setting": "[3]; [8]", "result": 1.0, "unit": "%"},
      {"measurement": "PLATELET COUNT", "setting": "[3]; [8]", "result": "1.363e+06", "unit": "µL⁻¹"},
      {"measurement": "RBC", "setting": "[3]; [8]", "result": "8e+06", "unit": "µL⁻¹"},
      {"measurement": "RE[…]", "setting": "[3]; [8]", "result": 5.1, "unit": "%"},
      {"measurement": "WBC", "setting": "[3]; [8]", "result": 10200, "unit": "µL⁻¹"},
      {"measurement": "BASOPHIL", "setting": "[3]; [9]", "result": 0.0, "unit": "%"},
      {"measurement": "EOSINOPHIL", "setting": "[3]; [9]", "result": 0.0, "unit": "%"},
      {"measurement": "MCHC", "setting": "[3]; [9]", "result": 34.0, "unit": "%"},
      {"measurement": "MONOCYTE", "setting": "[3]; [9]", "result": 2.5, "unit": "%"},
      {"measurement": "PLATELET COUNT", "setting": "[3]; [9]", "result": "1.3558e+06", "unit": "µL⁻¹"},
      {"measurement": "RBC", "setting": "[3]; [9]", "result": "7.6e+06", "unit": "µL⁻¹"},
      {"measurement": "RE[…]", "setting": "[3]; [9]", "result": 5.2, "unit": "%"},
      {"measurement": "WBC", "setting": "[3]; [9]", "result": 11400, "unit": "µL⁻¹"},
      {"measurement": "mean corpuscular volume (MCV) and mean corpuscular hemoglobin (MCH) vs control", "setting": "[3]; female rats, […] anatabine, 0.75 mg/kg nicotine i.v.", "result": "small, but statistically significant decreases"},
      {"measurement": "inhibition at 0.3 µM", "setting": "nAChR α3/β4", "result": 19.1, "unit": "%"},
      {"measurement": "inhibition at 1 µM", "setting": "nAChR α3/β4", "result": 19, "unit": "%"},
      {"measurement": "inhibition at 10 µM", "setting": "nAChR α3/β4", "result": 95.8, "unit": "%"},
      {"measurement": "inhibition at 30 µM", "setting": "nAChR α3/β4", "result": 139, "unit": "%"},
      {"measurement": "inhibition at 100 µM", "setting": "nAChR α3/β4", "result": 145, "unit": "%"},
      {"measurement": "inhibition at 300 µM", "setting": "nAChR α3/β4", "result": 144, "unit": "%"},
      {"measurement": "inhibition at 1000 µM", "setting": "nAChR α3/β4", "result": 142, "unit": "%"}
    ]}
  ]
}
